# Measured values: ChEMBL document CHEMBL1201862, “PubChem BioAssay data set” (2004)
#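 Step 1: Grow cells in 96-well plates. Step 2: Expose to compound for 48 hours at 5 concentrations. Step 3: Interpolate endpoints linearly; if unreached, use highest concentration. GI50 marks 50% less growth.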 Active and inactive are the calls of the source. No stated cut-off is given here; in the data, active = GI50 up to about 1.1 µM and inactive = higher.
# Experiments:
# Assay in all cases: growth of human tumour cells (NCI), 48 h
# RXF 393 = test system: RXF 393
# MDA-MB-231 = test system: MDA-MB-231
# HOP-92 = test system: HOP-92
# IGROV-1 = test system: IGROV-1
# SK-OV-3 = test system: SK-OV-3
# SF-268 = test system: SF-268
# NCI-H226 = test system: NCI-H226
# A498 = test system: A498
# EKVX = test system: EKVX
# OVCAR-5 = test system: OVCAR-5
# HOP-62 = test system: HOP-62
# CAKI-1 = test system: CAKI-1
# HL-60 = test system: HL-60
# RPMI-8226 = test system: RPMI-8226
# HCT-116 = test system: HCT-116
# A549 = test system: A549
# SK-MEL-5 = test system: SK-MEL-5
# SNB-75 = test system: SNB-75
# NCI-H460 = test system: NCI-H460
SMILES,GI50 (RXF 393),GI50 (MDA-MB-231),GI50 (HOP-92),GI50 (IGROV-1),GI50 (SK-OV-3),GI50 (SF-268),GI50 (NCI-H226),GI50 (A498),GI50 (EKVX),GI50 (OVCAR-5),GI50 (HOP-62),GI50 (CAKI-1),GI50 (HL-60),GI50 (RPMI-8226),GI50 (HCT-116),GI50 (A549),GI50 (SK-MEL-5),GI50 (SNB-75),GI50 (NCI-H460)
N#CC(c1ccc(O)cc1)N1CCN(C(C#N)c2ccc(O)cc2)CC1 (stereo unspecified),33.9 µM (inactive),21.9 µM (inactive),23.3 µM (inactive),51.1 µM (inactive),28.6 µM (inactive),24.5 µM (inactive),34.3 µM (inactive),> 100 µM (inactive),35.7 µM (inactive),> 100 µM (inactive),20.2 µM (inactive),> 100 µM (inactive),> 100 µM (inactive),> 100 µM (inactive),> 100 µM (inactive),99.3 µM (inactive),> 100 µM (inactive),19 µM (inactive),
COC(=O)/C(=N\NC(=O)c1ccccc1O)C(C#N)c1ccccc1 (stereo unspecified),16.5 µM (inactive),,19.9 µM (inactive),19.5 µM (inactive),> 45.2 µM (inactive),23.5 µM (inactive),12.7 µM (inactive),> 25.9 µM (inactive),18.4 µM (inactive),20.9 µM (inactive),20.7 µM (inactive),27.7 µM (inactive),16.3 µM (inactive),20.2 µM (inactive),17.3 µM (inactive),16.6 µM (inactive),22 µM (inactive),22.5 µM (inactive),18.9 µM (inactive)
Cc1c2ccccc2c(C)c2c3c(ccc12)C(=O)C=CC3=O,13 µM (inactive),,15.1 µM (inactive),20 µM (inactive),> 60.5 µM (inactive),18.4 µM (inactive),> 89.5 µM (inactive),> 100 µM (inactive),30.2 µM (inactive),> 100 µM (inactive),> 44.5 µM (inactive),22.1 µM (inactive),2.15 µM (inactive),29.9 µM (inactive),22.5 µM (inactive),> 83.9 µM (inactive),37.7 µM (inactive),> 63.5 µM (inactive),> 67.6 µM (inactive)
CCOC(=O)/C1=C(\C)N(c2ccc(C)cc2)C(=O)c2ccccc2C(=O)c2c(O)ccc(O)c21,23.2 µM (inactive),14.1 µM (inactive),22.7 µM (inactive),18.9 µM (inactive),35.9 µM (inactive),27.7 µM (inactive),42.4 µM (inactive),,24.8 µM (inactive),30.2 µM (inactive),20.7 µM (inactive),20 µM (inactive),19.1 µM (inactive),11.7 µM (inactive),19.5 µM (inactive),26.6 µM (inactive),16.3 µM (inactive),0.634 µM (active),23.2 µM (inactive)
CC(=O)OC(C)(C)[C@H]1O[C@]23O[C@]1(C)C[C@@H](C)[C@@H]2[C@@]1(C)CC[C@@]24C[C@@]25CC[C@H](O[C@@H]2OC[C@@H](O)[C@H](O)[C@H]2O)C(C)(C)[C@@H]5CC[C@H]4[C@]1(C)[C@H]3O,3.36 µM (inactive),4.61 µM (inactive),9.02 µM (inactive),7.08 µM (inactive),12.3 µM (inactive),14 µM (inactive),8.59 µM (inactive),6.44 µM (inactive),4.06 µM (inactive),11.8 µM (inactive),11.9 µM (inactive),5.47 µM (inactive),2.03 µM (inactive),7.69 µM (inactive),6.67 µM (inactive),6.41 µM (inactive),10.3 µM (inactive),17.1 µM (inactive),7.4 µM (inactive)
